# Experimental data from patent US20260071252A1, “REVERSIBLE NANOPARTICLE AGGREGATES AND METHODS FOR DETECTING PROTEASES” (The Regents of the University of California, priority 2022, published 2026).
# Where no end group is shown, it is not given here.
# Experiments:
# [1] = Dissociation of Arg-Arg-AuNPs assemblies with HS-PEGs (UV-Vis percentage of dissociation, MANTA size); conditions: for dissociation of Arg-Arg-AuNPs assemblies: anchoring group / non-PEG ligand controls, up to >100 μM
# Description: Dissociation of the AuNPs assemblies. […] HS-PEG6-OCH3 was chosen because its grafting on AuNPs ensure a high colloidal stability of these latter. Indeed, the grafting of thiolated PEGs has been widely reported in the literature via the formation of a strong Au—S bond conferring to the particles a high colloidal stability due to a combination of hydrophilicity and steric hindrance.^30-32 The Au—S bond being stronger than the arginine-citrate, arginine-gold or even citrate-gold interactions, […] was expected to be capable of progressively replacing the arginine/citrate layers at the gold surface, disrupting the electrostatic network, and eventually dispersing the AuNPs (Scheme 1). Briefly, aqueous suspensions Arg-Arg-AuNPs assemblies were exposed to increasing concentrations of HS-PEG6-OCH3, and the dissociation of the assemblies was characterized by TEM, MANTA, FTIR and UV-Vis spectroscopies (FIG. 2).
# The presence of a PEG layer around the AuNPs explains the difference in the hydrodynamic diameter versus the initial AuNPs-citrate (48±32 nm vs 40±25 nm). Remarkably, the LSPR band of the dissociated AuNPs was identical to the AuNPs-citrate: The color of the sample returned to its initial bright red color. […] For the remainder of this study, the efficiency of the dissociation will be characterized by the percentage of dissociation (%) as measured by UV-Vis spectroscopy (comparison between the LSPR band after dissociation versus that from AuNPs-citrate). See the experimental section in the supporting information for more details. […] This finding is particularly interesting because the typical grafting density of HS-PEG6-OCH3 on dispersed AuNPs is reported to be between 3.5 and 4 HS-PEG6-OCH3/nm^2.^33 This implies that no excess of HS-PEGs was needed to dissociate the entire assembly-only enough to cover all the gold surface. It is worth noting that the kinetics of the dissociation was almost instantaneous (equilibrium reached within a minute) (FIG. 14). A video of the dissociation of the AuNPs assemblies is available online.
# Dissociation. Stock solutions of the different HS-PEGs with concentrations ranging from 10 μM to 1 mM were prepared. Specific volumes of each solution were added to a 96-well plate in order to reach the desired final HS-PEGs concentration and then 100 μL of Arg-Arg-AuNPs were added. For complex matrices experiments, the Arg-Arg-AuNPs were first concentrated 10 times by centrifugation and then dispersed in complex media (sea water, pooled human saliva, plasma, urine, bile or HEK cell lysates) that represented thus 90% of the total volume except for bile, which was only 20%. Quickly after the addition of AuNPs, the dissociation of the assembly was monitored and the ratio of the absorbances at 520 nm and 700 nm was recorded over time. The percentage of dissociation is described as follows:
# (§1) The optical absorption measurements were collected using a hybrid multi-mode microplate reader (Synergy™ H1 model, BioTek Instruments, Inc.) in a 96-well plate. The dissociation of assembly was characterized by measuring the ratio of the absorbance at 520 nm or 530 nm and 700 nm or 820 nm for 20 nm NPs or 40 nm NPs, respectively.
# The multispectral advanced nanoparticle tracking analysis (MANTA) is a technique that builds images from the particles' light scattering via three lasers of different wavelengths (for example, blue, green, and red); the wavelength of scattering depends on nanoparticle size. Thus, small particles (less than, or <, 100 nm) appear blue while larger particles appear greener or redder. MANTA uses these images to count the nanoparticles and calculate their size based on Brownian motion. […] 3000™ (Horiba Scientific, USA). The temperature was set to 25° C. during the measurement. Automated noise analysis determines the optimal wavelength for representing each nanoparticle. Here, 8-bit composite videos were generated, and 10 videos were used per analysis (300 frames for seconds).
# [2] = Peptide-induced (Arg-Arg) assembly of AuNPs-citrate, TEM/MANTA/UV-Vis
# Description: Formation of AuNP assemblies. In this study, we investigated the possibility of forming convenient and reversible AuNPs assemblies using only elementary 15 nm AuNPs-citrate suspended in water and short peptides without the need for a complex surface modification. Peptides were used because they are relatively bulky and thus their steric prevented the particles from entering a permanent aggregated state. Arginine in particular can strongly interact with citrate anions via electrostatic interactions. A dipeptide containing two repetitions of arginine (Arg-Arg or RR) was thus used to interact with multiple particles at the same time and induce assembly.
# Multispectral advanced nanoparticles tracking analysis (MANTA) was then used to confirm the size increase: The initial blue scattering corresponding to a hydrodynamic diameter of 40±25 nm (FIG. 1C) transformed immediately into red scattering corresponding to a hydrodynamic diameter of approximately 467±120 nm (FIG. 1D). Importantly, the count of particles decreased by more than 90%—from 2.5×10^5/mL to 2×10^4/mL, thus confirming that the vast majority of the AuNPs-citrate were aggregated. TEM images at different magnifications are seen in the supporting information (FIG. 10 and FIG. 11).
# AuNPs Assembly and Dissociation Assembly. Typically, 1 mL of AuNPs-citrate at OD=1.5 was mixed with 50 μL of Arg-Arg (100 μM) to provoke the AuNPs assembly. The color of the suspensions rapidly changed from red to blue. The assembled AuNPs (Arg-Arg-AuNPs) were stable over time when stored at 4° C. and could be used for dissociation even month after their assembly.
# as §1
# The multispectral advanced nanoparticle tracking analysis (MANTA) is a technique that builds images from the particles' light scattering via three lasers of different wavelengths (for example, blue, green, and red); the wavelength of scattering depends on nanoparticle size. Thus, small particles (less than, or <, 100 nm) appear blue while larger particles appear greener or redder. MANTA uses these images to count the nanoparticles and calculate their size based on Brownian motion. MANTA was performed with the VIEWSIZER 3000™ (Horiba Scientific, USA). The temperature was set to 25° C. during the measurement. Automated noise analysis determines the optimal wavelength for representing each nanoparticle. Here, 8-bit composite videos were generated, and 10 videos were used per analysis (300 frames for seconds). A quartz cuvette with minimum volume of 1 mL was used for the measurement and the AuNPs concentrations was set up at 0.04 nM.
# trypsin = assay: Trypsin sensing with HS-PEG-peptide conjugates and Arg-Arg-AuNPs assemblies; format: biochemical
# Method: Peptides containing the motif Arg-Arg-Lys (RRK) were thus conjugated to a thiolated PEG capped with a carboxyl group (HS-PEG12-COOH, Mw=634 Da) via EDC/NHS cross-linking reaction. Three peptides based on the motif RRK were investigated and the number of RRK repetitions varied from 1 to 3 to increase the mass and charge of the resulting HS-PEG-peptide conjugate (FIG. 6A).
# From concentrations of 10 μM, HS-PEG12-COOH is capable to dissociate 100% of the assemblies (FIG. 21). However, the conjugation of the peptides to the HS-PEG12-COOH was expected to decrease its capacity to dissociate the assemblies as it increases its size and charge. In this context, the addition of the HS-PEG-peptide conjugates to AuNPs assemblies could not generate a colorimetric signal. However, in the presence of trypsin, the proteolytic cleavage could progressively remove the amino acids residues from the conjugate, thus reducing its size and charge that would restore the dissociation capacity. A colorimetric signal, proportional to the trypsin activity, could thus be observed (FIG. 6B).
# Typically, 1 mL of HS-PEG12-COOH (HS—(CH2CH2O)12—CH2CH2COOH, 634 Da, 1 mM) dissolved in MES buffer (10 mM, pH=5.5) was activated via the addition of 100 μL of EDC (50 mM, MES) and 40 μL of NHS (500 mM, MES). The reaction was stirred at room temperature for one hour. After one hour, 1 mL of peptide (or NH2-molecule) (1 mM) dissolved in PBS (100 mM, pH=7.4) was added to the activated HS-PEG12-COOH. The reaction was stirred for 4 hours at room temperature and then stored at 4° C.
# Typically, 5 μL of the PEG-peptide conjugate (0.44 mM) were added to 5 μL of PBS 1×. […] At the end of the incubation, 100 μL of aggregated AuNPs (Arg-Arg-AuNPs) were added, and a color change proportional to the trypsin concentration was observed. UV-Vis spectra were recorded 30 minutes later.
# [3] = RRK-based aggregation of citrate-coated AuNPs; conditions: for particle aggregation of AuNPs: peptides from 0.5 to 30 μM
# Description: To induce reversible aggregation of the AuNPs, we used positively charged Arg and Lys-based peptide residues (i.e., RRK). The RRK peptide could induce plasmonic coupling by electrostatic attractions between negatively charged citrate molecules and guanidine and amine groups in RRK (FIG. 36a).^8,19 The size of AuNPs increased upon addition of RRK peptides, as confirmed by transmission electron microscopy (TEM) and dynamic light scattering (DLS) (FIG. 36b and FIG. 42). […] Raman spectroscopy observed the appearance of C—C stretching at 984 cm^−1 and C—N stretching at 1443 cm^−1 from Arg residues in RRK (FIG. 36d).^20 Lastly, R, RRK, and RRKRRK (SEQ ID NO:13) peptides (from 0.5 to 30 μM) were used to induce AuNP aggregates to study the impact of charge number on particle aggregation. […] A higher positive charge number can decrease the critical coagulation concentration (CCC).^7 RRK peptide was chosen in this study because particle aggregation induced by a strong cationic peptide (i.e., RRKRRK) (SEQ ID NO:13) can result in irreversible aggregation.
# Briefly, 10 μM of RRK peptide was used to aggregate 100 μL of AuNPs (conc approximately 3.6 nM). The particle aggregation rapidly occurred (less than 10 s), changing color from red to blue. Then the desired dissociation peptides were used to dissociate the AuNP aggregates. It is notable that these exemplary AuNPs are stabilized by citrate. Different surface ligands (for example, BSPP) and different sizes (40 or 60 nm) require different amounts of RRK peptide for particle aggregation.
# [4] = Colloidal stability of the dissociated AuNPs (aggregation parameter); format: physicochemical; conditions: NaCl 0.5 to 2 μM (so in the source), absorbance 520/600 nm
# Method: We further studied the role of Glu, Lys, and Pro amino acids in A1 peptides (FIG. 37h). For example, Pro-based spacer can provide a rigid and self-assembling monolayer (SAM) that increases the colloidal stability of AuNPs.^28 When the spacer was moved to the site between Glu and Lys residues (i.e., A5), the dissociation capacity was 50% lower than A1 peptide. […] A1 peptide without Lys (i.e., A7) decreased to 30% of the dissociation capacity likely due to the decrease in grafting kinetics of thiol-Au bonds and hydration layers.^22,25 Lastly, the dissociated AuNPs were incubated in different concentrations ([…]) of NaCl to examine colloidal stability of the dissociated AuNPs (FIG. 37i).
# Pro-, Ala-, and Gly-based spacers have different hydrophobic and hydrophilic natures, rigidity, and flexibility.^22,29 For example, Pro residue is more hydrophobic and rigid (i.e, low mobility) while Gly residue is more hydrophilic and flexible. To investigate the impact of the rigidity and hydrophilicity of the peptides on the particle dissociation, we synthesized A1, A10, and A11 peptides that have different spacers: PP, AA, GG (FIG. 38a-b and FIG. 49). We also synthesized the peptide without a spacer (i.e., A9) to confirm the impact of the spacer on particle dissociation. […] We further compared colloidal stability of the dissociated AuNPs by A1, A9, A10, and A11 peptides. The dissociated AuNPs were incubated in NaCl (from […]) for 1 h and measured variations of absorbance between 520 nm and 600 nm.
# This exemplary dissociation strategy can also improve colloidal stability of plasmonic nanoparticles. […] Lastly, this exemplary dissociation strategy is less affected by matrix interference. We replaced the sample matrix with 100% human plasma, urine, saliva, and seawater after RRK-based AuNPs aggregation. After adding dissociation peptides, reversible aggregation still occurred, leading to a blue-shift of the plasmonic resonance peak; this in turn changes color from blue to red in 100% human plasma, urine, saliva, and seawater (FIG. 40j-k and FIG. 27).
compound,measurement,setting,value
"O=C(O)c1ccc(S)cc1 [MBA, 4-mercaptobenzoic acid, reference compound]",dissociation of Arg-Arg-AuNPs assemblies,[1],none could dissociate the aggregates
"O=C(O)CCOCCOCCOCCOCCOCCOCCOCCOCCOCCOCCOCCOCCS [HS-PEG12-COOH, HS—(CH2CH2O)12—CH2CH2COOH]",assemblies dissociated,[1]; from concentrations of 10 μM,100%
"O=C(O)CCS [MPA, 3-mercaptopropionic acid, reference compound]",dissociation of Arg-Arg-AuNPs assemblies,[1],none could dissociate the aggregates
Arg-Gly-Gly-Gly-Arg (RGGGR-NH2) [reference compound],affinity for the AuNPs-citrate compared to Arg-Arg (RR),[2]; FIG. 1F,higher affinity for the particles than RR
"HS-PEG-RRKRRKRRK: HS-PEG12-COOH conjugated to peptide RRKRRKRRK via EDC/NHS (also: HS-PEG12 conjugated via EDC/NHS, site not given here)",dissociation capacity of the intact conjugate,"trypsin; titrated to Arg-Arg-AuNPs, up to >100 μM, no trypsin",total quenching of the dissociation capacity
same,dissociation capacity after digestion with trypsin,"trypsin; trypsin 10 μM, 37° C., 24 h",restored
Arg-Arg,decrease of the count of particles,"[2]; MANTA, from 2.5×10^5/mL to 2×10^4/mL after Arg-Arg",more than 90%
same,Arg-Arg-induced aggregation of AuNPs-citrate in complex media,"[2]; biological fluids, high concentrations of Arg-Arg (>200 μM)",could not induce the AuNPs-citrate aggregation in biological fluids
same,hydrodynamic diameter (MANTA) after addition of di-arginine peptide,"[2]; excess (10^4 equiv.), 10 μM Arg-Arg, 10 minutes, initial AuNPs-citrate 40±25 nm",approximately 467±120 nm
"N=C(N)NCCC[C@H](N)C(=O)O [R, arginine, reference compound]",induction of assembly of AuNPs-citrate,[2]; water,could not induce any form of assembly
same,particle aggregation of AuNPs,[3],did not aggregate
Ace-EEKKC-Am [Peptide A9],colloidal stability of peptide-capped AuNPs,[4],relatively low colloidal stability
Arg-Arg-Lys [RRK],particle aggregation of AuNPs,[3],effectively induced particle aggregation
same,plasmonic resonance peak after addition of peptide,[3]; red-shifted from 520 nm,648 nm
RRKRRK,particle aggregation of AuNPs,[3],effectively induced particle aggregation
